Results on one molecule are retold here after US6579853B2, “Brain cell or nerve cell-protective agents comprising ginsenoside Rb1” (Japan Science and Technology Corporation, priority 1998, dated 2003).

For data set [1], the system named is SH-SP rats with MCA permanent occlusion. The experiment in a line: Water maze test (place navigation ability) after MCA permanent occlusion, intravenous infusion. Format: in vivo, rat. Here is the method:
First, we examined the actions of intravenous infusion of ginsenoside Rb1. For this purpose, for example, male SH-SP rats weighing 250˜300 g at the age of 12-13 weeks were used. The animals were bred in an air-conditioned room with a 12:12 hour light-dark cycle, and water and feeds were supplied ad libitum. The cortical branch of the left middle cerebral artery (MCA) was coagulated and cut. A single intravenous administration of ginsenoside Rb1 dissolved in physiological saline was conducted immediately after MCA permanent occlusion (6 μg or 60 μg), thereafter continuous intravenous administration of ginsenoside Rb1 was performed for 28 days by using an Alza mini osmotic pump (6 μg/day or 60 μg/day).
After MCA permanent occlusion, according to the conventional method (Zhang B. et al., J. Stroke Cerebrovasc. Dis., 7, 1-9, 1998), water maze tests were performed for 4 days at the 2nd week and the 4th week, respectively, and the place navigation abilities of SH-SP rats were determined.
Male SH-SP rats at the age of 12-13 weeks, weighing 250-300 g, were used. The animals were bred in a room furnished with 12 hours light and dark cycles and water and feeds were supplied ad libitum. Blood pressure of the animals was 203±6.9 mmHg. The following experiments were conducted in accordance with the Guide for Animal Experimentation at Ehime University School of Medicine. The cortical branch of the left middle cerebral artery (MCA) of SH-SP rats, were coagulated and cut, while their rectal temperature was maintained at 37±0.2° C. under inhalation anesthesia.
Immediately after MCA permanent occlusion, 60 μl of physiological saline containing ginsenoside Rb1 at a concentration of 1 μg/μl or 0.1 μg/μl was injected once into the left femoral vein. […]
After the MCA permanent occlusion according to the conventional method (Zhang B. et al., J. Stroke Cerebrovase. Dis., 7, 1-9, 1998), water maze tests were performed for 4 days at the 2nd week and the 4th week, respectively, and place navigation abilities of SH-SP rats were determined. […]

For data set [2], the system named is gerbils loaded with 3 minute forebrain ischemia. Put plainly: TUNEL staining of hippocampal CA1 field after 3 minute forebrain ischemia, intracerebroventricular administration. The conditions noted are these: i.c.v. 2.5 or 25 ng single, then 60 or 600 ng/day for 1 week; 1 week after ischemia. Format: in vivo, gerbil. Here is the method: In order to analyze a suppressive effect of ginsenoside Rb1 on intracerebral apoptosis-like neuron death, the present inventors examined whether actually occurring pathological apoptosis-like neuron death in the mature brain can be reduced by administration of ginsenoside Rb1 or not. The three minute forebrain ischemia model of gerbils was used as model animal. It was reported that at one week after 3 minute ischemia, about one half of hippocampal CA1 pyramidal neurons degenerated (Sakanaka M., et al., Proc. Natl. Acad. Sci. USA, 95, 4635-4640, 1998). […] With this model animal, it was examined with TUNEL staining whether apoptosis-like neuron death on the 7th day after 3 minute ischemia could be suppressed by intracerebroventricular administration of ginsenoside Rb1 or not.
Immediately after 3 minute forebrain ischemia in gerbils under inhalation anesthesia, a single intracerebroventricular administration of ginsenoside Rb1 at the dose of 2.5 ng or 25 ng was performed, and subsequently ginsenoside Rb1 (60 ng/day or 600 ng/day) was continuously infused into the cerebral ventricles through an osmotic minipump for 1 week. At one week after 3 minute forebrain ischemia, the gerbils were perfused and fixed transcardially with phosphate buffer containing 4% paraformaldehyde under pentobarbital anesthesia and the brain was dissected out. […]

The subject of data set [3] is cerebrocortical nerve cells (neurons) from rats at embryonic age 17.
Procedure: After maintaining cerebrocortical nerve cells (neurons) from rats at embryonic age 17 in a serum-free culture medium for 4 or 5 days, the medium was replaced with a fresh medium containing or not containing ginsenoside Rb1 and the neurons were incubated for 24 hours. Then, SNP at the concentration of 100 μM was added to the medium for 10 minutes, and the nerve cells (neurons) were maintained in a medium containing ginsenoside Rb1 for 16 hours. Survival rate of the nerve cells was measured by using a redox indicator, alamar blue.
In the present experiments, ginsenoside Rb1 was added before and after SNP loading or only after SNP loading, and its effects were measured.
After maintaining cerebrocortical nerve cells (neurons) from rats at embryonic age 17 in a serum-free culture medium for 4 or 5 days, the medium was replaced with a fresh medium containing ginsenoside Rb1 at the concentrations of 1 fg/ml, 100 fg/ml and 100 pg/ml or no ginsenoside Rb1 (0 fg/ml), and the neurons were incubated for 24 hours. Thereafter a nitric oxide (NO) donor, sodium nitroprusside (SNP) at a concentration of 100 μM, was added to the medium for 10 minutes. Then the nerve cells (neurons) were maintained in a medium containing ginsenoside Rb1 for 16 hours. Survival rate of the nerve cells was measured by using a redox indicator, alamar blue.
Data are represented as a mean±SE. […]
For data set [4] the following is noted: in vivo.
Data set [5] relates to transient forebrain ischemia model of gerbils. To be noted: cited from earlier work.
Data set [6] deals with gerbils with occlusion of the common carotid arteries. The conditions noted are these: i.c.v. infusion starting immediately after 3 or 3.5 minute occlusion; cited from earlier work.
Data set [7] has as its system SH-SP rats with permanent occlusion of the MCA. To be noted: cited from earlier work.
Setting [8] is: i.c.v. infusion starting immediately after permanent MCA occlusion.

With `CC(C)=CCC[C@](C)(O[C@@H]1O[C@H](CO[C@@H]2O[C@H](CO)[C@@H](O)[C@H](O)[C@H]2O)[C@@H](O)[C@H](O)[C@H]1O)[C@H]1CC[C@]2(C)[C@@H]1[C@H](O)C[C@@H]1[C@@]3(C)CC[C@H](O[C@@H]4O[C@H](CO)[C@@H](O)[C@H](O)[C@H]4O[C@@H]4O[C@H](CO)[C@@H](O)[C@H](O)[C@H]4O)C(C)(C)[C@@H]3CC[C@]12C` [ginsenoside Rb1], the “learning disability in water maze tests, low dose” value in data set [1] (i.v. 6 μg/day, 3rd and 4th day at the 2nd and 4th week after MCA occlusion) was “significantly ameliorated”. Besides, the “learning disability in water maze tests, high dose” value in data set [1] (i.v. 60 μg/day, 4th day at the 2nd week, 3rd and 4th days at the 4th week after MCA occlusion) is “significantly ameliorated”. Also, the “place navigation disability after MCA permanent occlusion (water maze)” value in data set [1] (intravenous infusion 6 or 60 μg/day for 28 days, compared with cerebral infarction group given physiological saline) is “significantly improved”. Further, the “TUNEL-positive nerve cells in hippocampal CA1 field” value in data set [2] is given as “significantly reduced in a dose-dependent manner”. Besides, the “apoptosis of nerve cells after SNP treatment” value in data set [3] (1-100 fg/ml, added before and after SNP (100 μM, 10 minutes) or only after SNP) is given as “significantly suppressed”. Also, the “concentrations in extracellular fluid that suppress apoptosis of nerve cells” value in data set [3] (SNP-treated cultured neurons) was in the range of 1 to 100 fg/mL. Besides, the “adverse effect on administered animals” value in data set [4] is on record as “No adverse effect”. Besides, the “delayed neuronal death and learning disability caused by 5 minute occlusion” value in data set [5] (i.p. 10 or 20 mg/kg once a day for one week in advance) is “significantly prevent”. Further, the “hippocampal CA1 pyramidal neurons rescued” value in data set [5] (i.p. 10 or 20 mg/kg/day before ischemic loading) is on record as “about 30%”. In addition, the “effect of intraperitoneal administration after ischemia” value in data set [5] (i.p. immediately after 3- or 5-minute occlusion of the common carotid arteries) is “no effect”. Also, in data set [6], the “delayed neuronal death and learning disability” value is “suppresses”. The “suppressive effect on cerebral infarction” value in data set [7] (continuous i.c.v. infusion 0.6 μg/day after MCA occlusion) is “significant suppressive effect”. The “curative effect on cerebral infarction” value in data set [7] (continuous i.c.v. infusion 6 μg/day or 0.06 μg/day after MCA occlusion) is “no curative effect”. Further, in data set [7] (setting [8]), the “infarcted area in the cerebral cortex” value is on record as “significant reduction” and the “ischemia-induced place navigation disability” value was “ameliorated”.
